The record followed here is patent US12338236B2, “Benzoisothiazole and benzoisoxazole compounds for the treatment of mental disorders” (SUVEN LIFE SCIENCES LIMITED, priority 2022, dated 2025).

Counter-ions that a name gives are not always drawn.

The target of one series is T1, human 5-HT1A receptor (Homo sapiens, UniProt P08908).
T1 construct: expressed in transfected cells; host or cells: HEK293-EBNA
T1 sequence (P08908 1-422): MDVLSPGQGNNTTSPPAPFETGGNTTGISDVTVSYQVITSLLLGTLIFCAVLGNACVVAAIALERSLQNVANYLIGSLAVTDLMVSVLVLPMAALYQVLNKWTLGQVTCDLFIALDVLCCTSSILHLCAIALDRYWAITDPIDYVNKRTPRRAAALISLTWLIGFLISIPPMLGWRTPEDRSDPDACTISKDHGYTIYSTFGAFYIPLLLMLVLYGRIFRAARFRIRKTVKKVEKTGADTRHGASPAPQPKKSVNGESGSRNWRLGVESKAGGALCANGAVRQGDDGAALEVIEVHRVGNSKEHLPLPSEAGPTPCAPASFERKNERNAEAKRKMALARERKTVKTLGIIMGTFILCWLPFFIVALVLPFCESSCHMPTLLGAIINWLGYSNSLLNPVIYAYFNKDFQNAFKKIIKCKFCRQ
In words: Determination of Ki values at 5-HT1A receptor ([3H]-8-Hydroxy DPAT radioligand binding). The note with it: h5-HT1A, HEK293-EBNA, [3H]-8-Hydroxy DPAT 0.8 nM. How it is done:
Example-43: Determination of Ki Values at 5-HT1A Receptor
• Receptor source: Recombinant mammalian cells (HEK293-EBNA) • Radioligand: [^3H]-8-Hydroxy DPAT (200 Ci/mmol) • Final ligand concentration: 0.8 nM • Non-specific determinant: 0.1 mM U92016A • Reference compound: U92016A • Positive control: U92016A Incubation conditions: Reactions were carried out in buffer with pH 7.4 containing 50 mM Tris-HCl, 0.5 mM EDTA, 10 mM MgSO4, 0.1% Ascorbic acid for 2 h at RT. The reaction was terminated by rapid vacuum filtration onto the glass fiber filters. Radioactivity trapped onto the filters was determined and compared to the control values in order to ascertain any interactions of the test compound(s) with cloned human 5-HT1A receptor binding site.

In series [1] the target is T2, human histamine H1 receptor (Homo sapiens, UniProt P35367).
T2 construct: expressed in transfected cells; host or cells: CHO-K1
T2 sequence (P35367 whole entry): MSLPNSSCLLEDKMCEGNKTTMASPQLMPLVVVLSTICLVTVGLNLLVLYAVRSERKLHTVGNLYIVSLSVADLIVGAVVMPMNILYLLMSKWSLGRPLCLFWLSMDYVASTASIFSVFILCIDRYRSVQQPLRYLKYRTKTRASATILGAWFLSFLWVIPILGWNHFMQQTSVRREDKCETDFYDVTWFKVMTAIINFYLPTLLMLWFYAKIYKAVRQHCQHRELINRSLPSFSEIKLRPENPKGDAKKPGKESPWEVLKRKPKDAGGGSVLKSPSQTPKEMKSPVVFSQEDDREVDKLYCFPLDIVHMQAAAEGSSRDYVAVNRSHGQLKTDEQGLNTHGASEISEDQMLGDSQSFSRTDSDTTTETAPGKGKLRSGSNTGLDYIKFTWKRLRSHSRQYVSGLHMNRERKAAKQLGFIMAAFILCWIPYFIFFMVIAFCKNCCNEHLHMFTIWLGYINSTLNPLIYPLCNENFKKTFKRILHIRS
In words: Determination of Ki values at histamine H1 receptor ([3H]-Pyrilamine SPA binding). The note with it: hH1, CHO-K1, [3H]-Pyrilamine 2 nM. Here is the method:
Example-48: Determination of Ki values at Histamine H1 receptor
• Receptor source: Recombinant mammalian cells (CHO-K1) • Radioligand: [^3H]-Pyrilamine (20.7 Ci/mmol) • Final ligand concentration: 2 nM • Non-specific determinant: 0.1 mM Pyrilamine • Reference compound: Pyrilamine • Positive control: Pyrilamine Incubation conditions: Reactions were carried out in buffer with pH 7.4 containing 67 mM Tris-HCl and SPA beads (0.1 mg/well) for 1 h at 37° C. Radioactivity proximal to SPA beads was determined by scintillation proximity assay and compared to the control values in order to ascertain any interactions of the test compound(s) with cloned human histamine H1 receptor binding site.

Series [2] in a line: Rodent pharmacokinetic study. The series is classed as in vivo, Male Wistar rats. The note with it: male, Wistar, plasma, rat; for bioavailability: oral 3 mg/kg vs intravenous 1 mg/kg, read-out: F (Bioavailability). Here is the method:
Example-49: Rodent Pharmacokinetic Study
Male Wistar rats (250±50 grams) were used as experimental animals. Animals were housed individually in polypropylene cages. Two days prior to study, male Wistar rats were anesthetized with isoflurane for surgical placement of jugular vein catheter. Rats were randomly divided for oral (3 mg/kg and 10 mL/kg as dose volume) and intravenous (1 mg/kg and 2.0 mL/kg as dose volume) dosing (n=3/group) and fasted overnight before oral dosing (p.o.). However, rats allocated to intravenous dosing food and water was provided ad libitum.
Intravenous formulation was prepared by using 5% Pharmasolve+45% Propylene Glycol+50% PEG 400 as vehicle. For Oral, formulation was prepared by using 0.25% Tween 80+99.75% of 1% (w/v) hydroxyethylcellulose solution as a vehicle. The dose formulations were prepared freshly on the day of dosing.
After dosing of animal, each time point a 200 μL of blood sample was collected through the jugular vein and replenished with an equivalent volume of normal saline. Collected blood sample was transferred into a labeled eppendorf tube containing 10 μL of sodium heparin (1000 IU/mL) as an anticoagulant. Typically blood samples were collected at following time points: 0.08, 0.25, 0.5, 1, 2, 4, 6, 8, and 24 h post dose. Blood was centrifuged at 4000 revolutions per minute (rpm) for 10 min. Plasma was separated and stored frozen at −80° C. until analysis. The concentrations of the test compounds were quantified in plasma by qualified LC-MS/MS method using suitable extraction technique in the calibration range around 1-2000 ng/mL in plasma. Study samples were analyzed using calibration samples in the batch and quality control samples spread across the batch.
Pharmacokinetic parameters Cmax, AUC0-t, t1/2, Clearance and Bioavailability (F) were calculated using standard non-compartmental model by using Phoenix WinNonlin 8.1 version Software package.

In series [3] the test system is amphetamine-induced hyperlocomotion. In words: Amphetamine-induced open field assay. The series is classed as in vivo, Male Wistar rats. The following applies: rats, 3, 10, 30 mg/kg, p.o., vs Amphetamine (2.5 mg/kg, i.p.) treated group. Here is the method: Example-51: Amphetamine-Induced Open Filed Assay
Male Wistar rats of 230-250 g weight were used. The body weights of the rats were recorded. Rats were randomized according to their body weights. Animals were brought to the laboratory 1 h prior to acclimatizing to the laboratory conditions. The open field is black colored arena of 51×51×51 cm enclosed by black plastic walls of same dimensions. Rats were habituated to the open field arena for a period of 15 min. Animals were administered respective treatments (Vehicle or Example-2) 60 min prior to the trial. After 30 min, animals were challenged with amphetamine (2.5 mg/kg, i.p.) or vehicle. Then the animals were placed in open field arenas and distance traveled by […] was tracked for 15 min using Videomot software. Data was analyzed using GraphPad prism.

In the next series the test system is DOPA levels in striatum. The experiment in a line: Reserpine-induced DOPA accumulation. The format is in vivo, Male Wistar rats. The note with it: rats, 3 mg/kg, p.o., 1.16 h before sacrifice, striatum. How it is done: Example-53: Reserpine-Induced DOPA Accumulation
Male Wistar rats were pretreated with reserpine (5 mg/kg, s.c.) approximately 18 h before sacrifice and were thereafter fasted until sacrifice. Example-2 (3 mg/kg, p.o.) and (3-(3-hydroxyphenyl)-N-n-propylpiperidine (3-PPP); 30 mg/kg, s.c.) were administered 1.16 h and 1 h, respectively before sacrifice. Haloperidol (0.5 mg/kg, s.c.) was used as a positive control and was dosed 10 min prior to 3-PPP in a separate group of animals. 3-Hydroxybenzylhydrazine dihydrochloride (NSD-1015; 100 mg/kg, s.c.) was then administered 0.5 h before sacrifice. Each rat was sacrificed, brain was removed and then striatum was isolated. The tissue was immediately weighed and homogenized in 0.1 N perchloric acid by means of an ultrasonic disruptor while being cooled in ice. The homogenate was centrifuged at 4° C. at 20,000 g for 15 min. The supernatant was assayed for dihydroxyphenylalanine (DOPA) levels using HPLC-ECD.

What is called Ki is the dissociation constant of the complex between target and ligand, obtained from inhibition or displacement. By bioavailability is commonly meant dose-corrected exposure relative to a reference, in per cent. Usually AUC(0-t) stands for the area under the concentration-time curve up to a stated or last time point. By half-life is commonly meant the time needed for the level to fall by half in the phase considered. Read a low half-life as fast loss. Usually Cmax stands for the highest concentration seen after dosing. `Cc1noc(-c2csc(OCCCN3CCN(c4nsc5ccccc45)CC3)n2)n1` [compound 12, 3-(4-{3-[4-(3-Methyl-[1,2,4]oxadiazol-5-yl)-thiazol-2-yloxy]-propyl}-piperazin-1-yl)-benzo[d]isothiazole oxalate] had a Ki on human 5-HT1A receptor of 0.2 nM. In series [1], the affinity corresponds to a Ki of 4.1 nM. In addition, the bioavailability in series [2] came out at 18 ± 4.3%. Further, in series [2] (intravenous (bolus), 1 mg/kg), the AUC(0-t) came to 467 ± 115 ng·h/mL and the half-life was 2.59 ± 0.49 h. In series [2] (oral (gavage), 3 mg/kg), this compound registered an area under the curve AUC(0-t) of 250 ± 60 ng·h/mL and a Cmax of 279 ± 59.2 ng/mL.

`Cc1nnc(-c2csc(OCCCN3CCN(c4nsc5ccccc45)CC3)n2)o1` [Example-2, 3-(4-{3-[4-(5-Methyl-[1,3,4]oxadiazol-2-yl)-thiazol-2-yloxy]-propyl}-piperazin-1-yl)-benzo[d]isothiazole oxalate]: the Ki at human 5-HT1A receptor turned out to be 0.15 nM. For the same compound, in series [1], the Ki is 9.9 nM. Moreover, the bioavailability in series [2] turned out to be 46 ± 2%. In series [2] (intravenous (bolus), 1 mg/kg), this compound had an AUC(0-t) of 575 ± 60.8 ng·h/mL and a half-life of 1.98 ± 0.96 h. In series [2] (oral (gavage), 3 mg/kg), the AUC(0-t) stood at 795 ± 34.5 ng·h/mL and the Cmax amounted to 724 ± 170 ng/mL. Also, the “Effect on amphetamine-induced locomotion (distance traveled)” value in series [3] is “significant decrease in locomotion”. The “Blockade of the effects of 3-PPP on reserpine induced DOPA accumulation” value in the series on DOPA levels in striatum is listed as 25%.
